The text below walks through data of patent US20050059072A1, “Selective modulation of TLR gene expression” (3M Innovative Properties Company, priority 2003, published 2005).

For experiment [1], the system named is TLR3 gene. Description: TLR3 gene expression in PBMCs (real-time PCR). Type of experiment: cell-based, Human. The conditions noted are these: in vitro (FIG. 1, FIG. 2). On the procedure:
(§1) For some experiments, Peripheral Blood Mononuclear Cells (PBMCs) were isolated from donors by Ficol gradient centrifugation. For other experiments, leukophoresed mononuclear cells were obtained from AllCells, LLC (Berkeley, Calif.). Monocyte derived macrophages and dendritic cells were prepared from PBMCs using positive selection of CD14+ cells with Miltenyi micro beads (Miltenyi Biotec Inc., Auburn, Calif.). Dendritic cells were differentiated in RPMI 1640 with 10% fetal bovine serum, using 33 ng/mL IL4 and 66 ng/mL GM-CSF, and macrophages were differentiated using 25 ng/mL M-CSF, for seven days at 37° C.
(§2) IRM compounds were prepared as 1000× stocks in DMSO. PBMCs were diluted to approximately 3.0×10^6 cells per mL in Ex-Vivo 20 media, and 1.0 mL was distributed per well in a 96 deep well plate. Cells were allowed to equilibrate at 37° C. for 1 hour, then IRM compound was added to the culture.
(§3) At each indicated time point, cells were harvested as follows. PBMCs and dendritic cells were harvested by centrifuging the plate at 1500 RPM, 360 RCF, at 4° C. in a Qiagen SIGMA centrifuge (Qiagen Inc., Valencia, Calif.). The media was then vacuum aspirated and 400 μL of RLT buffer with 1.0% 2-mercaptoethanol was added to each well. Macrophage cultures were harvested by aspiration of the media and direct addition of the RLT buffer to the well. The total RNA was purified using a semi-automated procedure on the Qiagen BioRobot 8000 (Qiagen Inc., Valencia, Calif.), with an incorporated DNase digestion step.
(§4) Purified total RNA was transferred to Costar 3565 plate and the optical density at 260 nm and 280 nm was read using a Molecular Devices SpectroMax 384 Plus (Molecular Devices Corp., Sunnyvale, Calif.). The RNA was then ethanol precipitated, washed, and the pellet re-suspended in 10 μL of water. cDNA was made with the Invitrogen Superscript II Kit (Invitrogen Corp., Carlsbad, Calif.) using random priming and 2-3 μg of total RNA. PCR was performed using an ABI 7900 (Applied Biosystems Corp., Foster City, Calif.), and the 384 well Microfluidic Card with Taqman™ chemistry, and the reactions were standardized using 2 ng/μL cDNA in the master mix. Cycling conditions were 50° C. for 10 minutes, 95° C. for 2 minutes, then 35 cycles of 95° C. for 30 seconds, and 60° C. for 1 minute. Data was analyzed using SDS 2.0 software (Applied Biosystems, Inc.) using a threshold value of 0.1. The results were imported into Excel and the expression fold changes were calculated using the ΔΔCt method, (User Bulletin #2, PE Applied BioSystems, Inc.). Normalization of signals was performed using the housekeeping gene, GAPDH.

Experiment [2] concerns TLR3. Nature of the experiment: TLR3 expression in actinic keratosis lesion biopsies, phase II study. Type of experiment: in vivo, human. Conditions: AK lesion, 5% cream (ALDARA) 3 times per week for 4 weeks; highest response time point vs sun-unexposed non-AK skin. From the text: (§5) A phase II, double-blind, vehicle-controlled, randomized, parallel group study included 17 male subjects with histologically confirmed actinic keratosis (AK). Eligible subjects were randomized to receive either IRM5 formulated as a 5% cream (ALDARA, 3M Pharmaceuticals, St. Paul, Minn.) or vehicle cream in a 3:1 ratio. Study subjects had at least five clinically typical, discrete, visible AK lesions within a 25 cm^2 area on the balding scalp that were suitable for shave biopsies.
(§6) Subjects applied 1 sachet (250 mg) of study cream to the treatment area 3 times per week for 4 weeks. Each dose of study cream was applied prior to normal sleeping hours at approximately the same time on each dosing day and was to remain on the skin for approximately 8 hours.
(§7) Each subject could have up to 8 shave biopsies performed. Biopsy samples obtained at the treatment initiation visit and all subsequent visits were designated for gene expression analysis. At the treatment initiation visit (T=0), an intact lesion in the treatment area was biopsied (sample series A) to establish a baseline for AK gene expression. […] The sun-unexposed area biopsy was used to establish baseline control for gene expression. […]
(§8) RNA from each sample was extracted and expression of TLR1, TLR3, TLR6, TLR7, TLR8, TLR9, and TLR10 was analyzed as described in Example 1. […]

The test system of experiment [3] is TLR9. Description: TLR9 expression in actinic keratosis lesion biopsies, phase II study. Type of experiment: in vivo, human. The conditions noted are these: AK lesion, 5% cream (ALDARA) 3 times per week for 4 weeks; highest response time point vs sun-unexposed non-AK skin.
Source text: as §5, §6, §7, §8

The subject of experiment [4] is TLR8. Description: TLR8 expression in actinic keratosis lesion biopsies, phase II study. The class given is in vivo, human. The conditions noted are these: AK lesion, 5% cream (ALDARA) 3 times per week for 4 weeks; highest response time point vs sun-unexposed non-AK skin.
Source text: as §5, §6, §7, §8

Experiment [5] concerns TLR3 gene. Description: TLR3 gene expression in macrophages (real-time PCR). The class given is cell-based, Human. The conditions noted are these: macrophages (FIG. 5). The method, then:
(§9) For some experiments, Peripheral Blood Mononuclear Cells (PBMCs) were isolated from donors by Ficol gradient centrifugation. For other experiments, leukophoresed mononuclear cells were obtained from AllCells, LLC (Berkeley, Calif.). Monocyte derived macrophages and dendritic cells were prepared from PBMCs using positive selection of CD14+ cells with Miltenyi micro beads (Miltenyi Biotec Inc., Auburn, Calif.).
as §2, §3
The RNA was then ethanol precipitated, washed, and the pellet re-suspended in 10 μL of water. cDNA was made with the Invitrogen Superscript II Kit (Invitrogen Corp., Carlsbad, Calif.) using random priming and 2-3 μg of total RNA. PCR was performed using an ABI 7900 (Applied Biosystems Corp., Foster City, Calif.), and the 384 well Microfluidic Card with Taqman™ chemistry, and the reactions were standardized using 2 ng/μL cDNA in the master mix. […] Data was analyzed using SDS 2.0 software (Applied Biosystems, Inc.) using a threshold value of 0.1. The results were imported into Excel and the expression fold changes were calculated using the ΔΔCt method, (User Bulletin #2, PE Applied BioSystems, Inc.). […]

Experiment [6] has as its system TLR6. Nature of the experiment: TLR6 expression in actinic keratosis lesion biopsies, phase II study. Type of experiment: in vivo, human. Conditions: AK lesion, 5% cream (ALDARA) 3 times per week for 4 weeks; highest response time point vs sun-unexposed non-AK skin.
Source text: as §5, §6, §7, §8

Experiment [7] relates to TLR10. Nature of the experiment: TLR10 expression in actinic keratosis lesion biopsies, phase II study. The class given is in vivo, human. The conditions noted are these: AK lesion, 5% cream (ALDARA) 3 times per week for 4 weeks; highest response time point vs sun-unexposed non-AK skin.
Source text: as §5, §6, §7, §8

Experiment [8] relates to TLR1. Nature of the experiment: TLR1 expression in actinic keratosis lesion biopsies, phase II study. The class given is in vivo, human. Conditions: AK lesion, 5% cream (ALDARA) 3 times per week for 4 weeks; highest response time point vs sun-unexposed non-AK skin.
Source text: as §5, §6, §7, §8

Experiment [9] deals with TLR7. Description: TLR7 expression in actinic keratosis lesion biopsies, phase II study. Type of experiment: in vivo, human. Conditions: AK lesion, 5% cream (ALDARA) 3 times per week for 4 weeks; highest response time point vs sun-unexposed non-AK skin.
Source text: as §5, §6, §7, §8

Experiment [10] deals with TLR8 gene. Description: TLR8 gene expression in PBMCs (real-time PCR). Type of experiment: cell-based, Human. The conditions noted are these: in vitro (FIG. 1, FIG. 4). The method, then: as §1, §2, §3, §4
For experiment [11], the system named is TLR7. Nature of the experiment: TLR7 gene expression in dendritic cells (real-time PCR). The class given is cell-based, Human. On the procedure:
as §1
(§10) IRM compounds were prepared as 1000× stocks in DMSO. PBMCs were diluted to approximately 3.0×10^6 cells per mL in Ex-Vivo 20 media, and 1.0 mL was distributed per well in a 96 deep well plate. Cells were allowed to equilibrate at 37° C. for 1 hour, then IRM compound was added to the culture. […]
(§11) Purified total RNA was transferred to Costar 3565 plate and the optical density at 260 nm and 280 nm was read using a Molecular Devices SpectroMax 384 Plus (Molecular Devices Corp., Sunnyvale, Calif.). […] Data was analyzed using SDS 2.0 software (Applied Biosystems, Inc.) using a threshold value of 0.1. The results were imported into Excel and the expression fold changes were calculated using the ΔΔCt method, (User Bulletin #2, PE Applied BioSystems, Inc.). […]

The subject of experiment [12] is TLR7 gene. Nature of the experiment: TLR7 gene expression in macrophages (real-time PCR). Type of experiment: cell-based, Human. The conditions noted are these: macrophages (FIG. 7). On the procedure: as §9, §2
(§12) At each indicated time point, cells were harvested as follows. […]
(§13) The RNA was then ethanol precipitated, washed, and the pellet re-suspended in 10 μL of water. cDNA was made with the Invitrogen Superscript II Kit (Invitrogen Corp., Carlsbad, Calif.) using random priming and 2-3 μg of total RNA. […] Data was analyzed using SDS 2.0 software (Applied Biosystems, Inc.) using a threshold value of 0.1. The results were imported into Excel and the expression fold changes were calculated using the ΔΔCt method, (User Bulletin #2, PE Applied BioSystems, Inc.). […]

Experiment [13] deals with TLR6. Description: TLR6 gene expression in dendritic cells (real-time PCR). Type of experiment: cell-based, Human. The method, then:
as §1, §10, §11

The test system of experiment [14] is TLR5 gene. Description: TLR5 gene expression in macrophages (real-time PCR). Type of experiment: cell-based, Human. The conditions noted are these: macrophages (FIG. 6). The method, then:
as §9, §2, §12, §13

Experiment [15] relates to TLR7 gene. Nature of the experiment: TLR7 gene expression in PBMCs (real-time PCR). Type of experiment: cell-based, Human. Conditions: in vitro (FIG. 1, FIG. 3). On the procedure: as §1, §10, §11

“Also recorded” adds a separate entry of the source.

For `CC(C)Cn1cnc2c(N)nc3ccccc3c21` [IRM5, 1-(2-methylpropyl)-1H-imidazo[4,5-c]quinolin-4-amine], the “modulation of TLR3 gene expression” value in experiment [1] is recorded as “upregulate gene expression”; in experiment [5] it was “do not significantly modulate gene expression”. The “Median Fold Change - IRM5-treated (IRM-treated/Series C), TLR3” value in experiment [2] is listed as 1.5 fold. In addition, in experiment [3], the “Median Fold Change - IRM5-treated (IRM-treated/Series C), TLR9” value was determined as 15.2 fold. Besides, the “Median Fold Change - IRM5-treated (IRM-treated/Series C), TLR8” value in experiment [4] is 2.4 fold. In experiment [6], the “Median Fold Change - IRM5-treated (IRM-treated/Series C), TLR6” value was found to be 1.9 fold. Moreover, the “Median Fold Change - IRM5-treated (IRM-treated/Series C), TLR10” value in [7] was 3.6 fold. Also, the “Median Fold Change - IRM5-treated (IRM-treated/Series C), TLR1” value in experiment [8] stood at 2.1 fold. For the same molecule, the “Median Fold Change - IRM5-treated (IRM-treated/Series C), TLR7” value in [9] is 4.9 fold.

On to `Cc1nc2c(N)nc3cccnc3c2n1CC(C)C` [IRM8, 2-methyl-1-(2-methylpropyl)-1H-imidazo[4,5-c][1,5]naphthyridin-4-amine], for which the “modulation of TLR8 gene expression” value in experiment [10] is “higher and earlier peaks of gene expression”.

Turning to `CCOCc1nc2c(N)nc3c(c2n1CC(C)(C)O)CCCC3` [IRM1, 4-amino-2-(ethoxymethyl)-α,α-dimethyl-6,7,8,9-tetrahydro-1H-imidazo[4,5-c]quinoline-1-ethanol], the “modulation of TLR3 gene expression” value was “upregulates gene expression” in experiment [1] and “downregulated; also recorded: downregulates gene expression” in experiment [5]. In addition, in [11], the “modulation of expression from TLR7” value is given as “may downregulate expression”. The “modulation of TLR7 gene expression” value in experiment [12] is recorded as “downregulated”. The “modulation of TLR8 gene expression” value in experiment [10] was “higher and earlier peaks of gene expression”. The “modulation of expression from TLR6” value in [13] was “may downregulate expression”. Further, the “modulation of TLR5 gene expression” value in [14] was “downregulated”.

As for `CC(C)Cn1cnc2c(N)nc3cccnc3c21` [IRM7, 1-(2-methylpropyl)-1H-imidazo[4,5-c][1,5]naphthyridin-4-amine], the “modulation of TLR3 gene expression” value in experiment [1] is on record as “little effect on gene expression”. The “modulation of TLR8 gene expression” value in experiment [10] was “little effect on gene expression”. In addition, the “modulation of TLR7 gene expression” value in experiment [15] is “little effect on gene expression”.

Take `CCCCc1nc2c(N)nc3ccccc3c2n1CCCCNS(C)(=O)=O` [IRM3, N-[4-(4-amino-2-butyl-1H-imidazo[4,5-c]quinolin-1-yl)butyl]methanesulfonamide]: the “modulation of TLR3 gene expression” value in experiment [1] was “upregulate gene expression”; in experiment [5] it was “do not significantly modulate gene expression”.

In the case of `Cc1nc2c(N)nc3ccccc3c2n1CC(C)(C)O` [IRM6, 4-amino-α,α,2-trimethyl-1H-imidazo[4,5-c]quinoline-1-ethanol], the “modulation of TLR8 gene expression” value in [10] was “higher and earlier peaks of gene expression”.
